Among the data in ChEMBL document CHEMBL4706755, “Novel Small Molecule RNA m6A Demethylase AlkBH5 Inhibitors for Treating Cancer” (ACS Med Chem Lett, 2021) are IC50 values, retold here.

This experiment concerns the target RNA demethylase ALKBH5 (Homo sapiens, UniProt Q6P6C2). Nature of the experiment: Inhibition of ALKBH5 demethylase activity (unknown origin) assessed as increase in methylated 6A-RNA level incubated for 2 hrs by colorimetric analysis.

Chain of RNA demethylase ALKBH5 (Q6P6C2 whole entry): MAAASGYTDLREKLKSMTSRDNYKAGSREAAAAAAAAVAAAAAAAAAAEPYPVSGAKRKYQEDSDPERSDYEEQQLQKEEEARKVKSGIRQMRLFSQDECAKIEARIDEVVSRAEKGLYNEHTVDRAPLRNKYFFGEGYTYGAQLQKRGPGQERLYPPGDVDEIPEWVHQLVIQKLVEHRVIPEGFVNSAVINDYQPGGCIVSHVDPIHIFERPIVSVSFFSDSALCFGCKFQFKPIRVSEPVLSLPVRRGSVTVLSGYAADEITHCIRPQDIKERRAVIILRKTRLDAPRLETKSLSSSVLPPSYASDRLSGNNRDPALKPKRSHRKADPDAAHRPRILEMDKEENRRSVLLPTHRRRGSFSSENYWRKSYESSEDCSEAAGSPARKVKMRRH

As a reminder, the IC50 is the concentration that inhibits the measured activity by half. Turning to `O=C(O)CSC(O)C(=O)c1ccccc1` (stereo unspecified), the 50% inhibitory concentration (IC50) was 840 nM.
